No end group written: not given here.
Tests used:
Assay type in all cases: cell-based
[1] = test system: E. coli; experiment: MIC of peptide alone or with 20% of antibiotic MIC, procedure of Example 1; conditions: for MIC of antibiotic: antibiotic alone against E. coli; for MIC Peptide alone / MIC Peptide and Ampicillin / MIC Peptide with Aztreonam / MIC Peptide with Bacitracin / MIC Peptide and Benzyl penicillin: E. coli; for MIC Peptide and Ampicillin: peptide plus 20% of the MIC of ampicillin; for MIC Peptide and Ampicillin / MIC Peptide and Benzyl penicillin: Table 4; for MIC Peptide with Aztreonam: peptide plus 20% of the MIC of aztreonam, Table 5; for MIC Peptide with Bacitracin: peptide plus 20% of the MIC of bacitracin, Table 2; for MIC Peptide and Benzyl penicillin: peptide plus 20% of the MIC of benzyl penicillin
Protocol: (§1) S. aureus organisms are grown to mid log phase, and then diluted to 10^3 organisms/ml in 1/2 strength trypticase soy broth. After the incubation of the organisms, the minimal inhibitory concentration in ug/ml for Z-52 MG-2(amide-terminated), PGLa, CPF Z-50, A-97, Magainin II, and Z-74 peptides, against S. aureus was measured when each peptide was added alone to the organisms. "MG-2 (amide)" is amide-terminated Magainin II, and "Magainin II" is carboxy-terminated Magainin II. A-97 peptide is of the following structure:
(§2) The minimal inhibitory concentration (MIC) for each peptide was then measured when 20% of the minimal inhibitory concentration of bacitracin, tobramycin or gentamicin, respecitvely, is added to the organisms along with the peptide. The gentamicin employed is a mixture of Gentamicin C1, Gentamicin C1a, and Gentamicin C2. […] CPF Z-50 peptide has structure number (8) of the CPF peptides hereinabove described. Z-52 peptide is of the structure (ALSK)6 NH2. The minimal inhibitory concentrations are given below in Table I.
E. coli organisms were incubated according to the procedure described in Example 1. After the incubation, the minimal inhibitory concentrations against E. coli of each of the peptides described in Example 1 alone, as well as of each peptide when employed in combination with 20% of the MIC for bactracin, were then measured.
(§3) In this example, E. coli or P. aeruginosa organisms were incubated according to the procedure described in Example 1. After, the incubation, the minimal inhibitory concentrations of the peptides hereinabove described alone, as well as the peptides in combination with 20% of the minimal inhibitory concentrations (MIC) of benzyl penicillin or ampicillin, were then measured. […]
(§4) E. coli and P. aeruoginosa organisms were incubated according to the procedure described in Example 1. After the incubation, the minimal inhibitory concentrations of the peptides hereinabove described alone, as well as the peptides in combination with 20% of the MIC of the monobactam antibiotic aztreonam, were then measured. The MIC of aztreonam against E. coli is a 2 μg/ml, and against P. aeruginosa is 8 μg/ml.

[2] = test system: E. coli; experiment: MIC of peptide with or without 10 μg/ml erythromycin, Example 6
Protocol: (§5) For each of the organisms listed in Table 6 below, 10^5 organisms were mid-log inoculated into 200 ml of one-half strength trypticase soy broth. The organisms were incubated for 15 hrs. at 37° C. […] The minimal inhibitory concentrations in μg/ml are given below in Table 6. […] K. pneumoniae, P. aeruginosa, and E. coli are Gram-negative bacteria.

[3] = test system: K. pneumoniae; experiment: as above
Protocol: as §5

[4] = test system: P. aeruginosa; experiment: as above
Protocol: as §5

[5] = test system: S. aureus; experiment: MIC of peptide alone or with 20% of antibiotic MIC, procedure of Example 1; conditions: for MIC Peptide alone / MIC With Added Antibiotic Bacitracin / MIC With Added Antibiotic Gentamicin / MIC With Added Antibiotic Tobramycin: S. aureus; for MIC Peptide alone: Table I; for MIC With Added Antibiotic Bacitracin: peptide plus 20% of the MIC of bacitracin; for MIC With Added Antibiotic Gentamicin: peptide plus 20% of the MIC of gentamicin; for MIC With Added Antibiotic Tobramycin: peptide plus 20% of the MIC of tobramycin; for MIC of antibiotic: antibiotic alone against S. aureus
Protocol: as §1, §2

[6] = test system: P. aeruginosa; experiment: as above; conditions: for MIC Peptide with Aztreonam: peptide plus 20% of the MIC of aztreonam, Table 5; for MIC Peptide with Bacitracin: peptide plus 20% of the MIC of bacitracin, Table 3; for MIC of antibiotic: antibiotic alone against P. aeruginosa
Protocol: as §1, §2
In this example, P. aeruginosa organisms were incubated according to the procedure described in Example 1. After the incubation, the minimal inhibitory concentrations of the peptides hereinabove described alone, as well as the peptides in combination with 20% of the MIC of bacitracin, were then measured.
as §3, §4

[7] = test system: S. aureus; experiment: Erythromycin and peptide against S. aureus, Example 6
Protocol: For each of the organisms listed in Table 6 below, 10^5 organisms were mid-log inoculated into 200 ml of one-half strength trypticase soy broth. The organisms were incubated for 15 hrs. at 37° C. […] K. pneumoniae, P. aeruginosa, and E. coli are Gram-negative bacteria.

[8] = P. aeruginosa, Example 3, Table 3
[9] = P. aeruginosa, Example 5, Table 5
[10] = peptide with erythromycin 10 μg/ml (+)
[11] = peptide, no erythromycin added (-)

| Molecule | MIC of antibiotic [1] [µg/mL] | MIC Peptide alone [5] [µg/mL] | MIC With Added Antibiotic Bacitracin [5] [µg/mL] | MIC With Added Antibiotic Gentamicin [5] [µg/mL] | MIC With Added Antibiotic Tobramycin [5] [µg/mL] | MIC Peptide alone ([1]; Example 2, Table 2) [µg/mL] | MIC Peptide alone ([1]; Example 4, Table 4) [µg/mL] | MIC Peptide alone ([1]; Example 5, Table 5) [µg/mL] | MIC Peptide and Ampicillin [1] [µg/mL] | MIC Peptide with Aztreonam [1] [µg/mL] | MIC Peptide with Bacitracin [1] [µg/mL] | MIC Peptide alone [6, 8] [µg/mL] | MIC Peptide alone [6, 9] [µg/mL] | MIC Peptide with Aztreonam ([6]; P. aeruginosa) [µg/mL] | MIC Peptide with Bacitracin ([6]; P. aeruginosa) [µg/mL] | MIC of antibiotic [5] [µg/mL] | MIC of antibiotic [6] [µg/mL] | also measured |
| --- | --- | --- | --- | --- | --- | --- | --- | --- | --- | --- | --- | --- | --- | --- | --- | --- | --- | --- |
| CC1(C)S[C@@H]2[C@H](NC(=O)[C@H](N)c3ccccc3)C(=O)N2[C@H]1C(=O)O [ampicillin, alpha-amino-benzyl penicillin, reference compound] | 4 |  |  |  |  |  |  |  |  |  |  |  |  |  |  |  |  |  |
| CC[C@H]1OC(=O)[C@H](C)[C@@H](O[C@H]2C[C@@](C)(OC)[C@@H](O)[C@H](C)O2)[C@H](C)[C@@H](O[C@@H]2O[C@H](C)C[C@H](N(C)C)[C@H]2O)[C@](C)(O)C[C@@H](C)C(=O)[C@H](C)[C@@H](O)[C@]1(C)O [Erythromycin, reference compound] |  |  |  |  |  |  |  |  |  |  |  |  |  |  |  |  |  | Minimal Inhibitory Concentration ([2]; erythromycin alone): > 100 µg/mL; Minimal Inhibitory Concentration ([3]; erythromycin alone): > 100 µg/mL; Minimal Inhibitory Concentration ([4]; erythromycin alone): > 100 µg/mL |
| CC1(C)S[C@@H]2[C@H](NC(=O)Cc3ccccc3)C(=O)N2[C@H]1C(=O)O [benzyl penicillin, reference compound] | 64 |  |  |  |  |  |  |  |  |  |  |  |  |  |  |  |  |  |
| GFASFLGKALKAALKIGANLLGGTPQQ [Peptide Z-50, structure number (8) of the CPF peptides] |  | 16 | 16 | 2 | 8 | 16 | 32 | 32 | 8 | 8 | 16 | 32 | 64 | 32 | 4 |  |  | Minimal Inhibitory Concentration [2, 10]: < 0.5 µg/mL; Minimal Inhibitory Concentration [2, 11]: < 5.0 µg/mL; Minimal Inhibitory Concentration [3, 10]: < 0.5 µg/mL; Minimal Inhibitory Concentration [3, 11]: < 0.5 µg/mL; Minimal Inhibitory Concentration [4, 10]: < 0.5 µg/mL; Minimal Inhibitory Concentration [4, 11]: < 5.0 µg/mL |
| GIGKFLHSAKKFGKAFVGEIMNS-NH2 [MG-2 amide] |  | 256 | 32 | 4 | 32 | 16 | 64 | 64 | 8 | 32 | 4 | 128 | 128 | 64 | 8 |  |  | MIC Peptide and Benzyl penicillin [1]: 32 µg/mL; MIC Peptide alone ([6]; P. aeruginosa, Example 4, Table 4): 256 µg/mL; MIC Peptide and Ampicillin ([6]; P. aeruginosa, peptide plus 20% of the MIC of ampicillin, Table 4): 128 µg/mL; MIC Peptide and Benzyl penicillin ([6]; P. aeruginosa, peptide plus 20% of the MIC of benzyl penicillin, Table 4): 128 µg/mL; Minimal Inhibitory Concentration [2, 10]: 0.5 µg/mL; Minimal Inhibitory Concentration [2, 11]: 5 µg/mL; Minimal Inhibitory Concentration [3, 10]: < 0.5 µg/mL; Minimal Inhibitory Concentration [3, 11]: 5 µg/mL; Minimal Inhibitory Concentration [4, 10]: < 5.0 µg/mL; Minimal Inhibitory Concentration [4, 11]: 50 to 100 µg/mL; activity of combination against S. aureus ([7]; 10 μg/ml of amide-terminated Magainin II and 0.03 μg/ml of erythromycin): effective biological activity; concentration required for effective biological activity ([7]; S. aureus, substance alone): greater than 250 μg/ml |
| NC[C@H]1O[C@H](O[C@H]2[C@H](O)[C@@H](O[C@H]3O[C@H](CO)[C@@H](O)[C@H](N)[C@H]3O)[C@H](N)C[C@@H]2N)[C@H](N)C[C@@H]1O [tobramycin, Tobramycin, reference compound] | 2 |  |  |  |  |  |  |  |  |  |  |  |  |  |  | > 256 | 128 |  |
| gentamicin [reference compound] | 2 |  |  |  |  |  |  |  |  |  |  |  |  |  |  | 256 | > 256 |  |
| C[C@H]1[C@H](NC(=O)/C(=N\OC(C)(C)C(=O)O)c2csc(N)n2)C(=O)N1S(=O)(=O)O [aztreonam, reference compound] | 2 |  |  |  |  |  |  |  |  |  |  |  |  |  |  |  | 8 |  |
| GIGKFLHSAKKFGKAFVGEIMNS [Magainin II] |  | 256 | 128 | 4 | 32 | 32 | 64 | 64 | 16 | 16 | 8 | 256 | 256 | 128 | 16 |  |  | MIC Peptide and Benzyl penicillin [1]: 32 µg/mL |
| bacitracin [reference compound] | 64 |  |  |  |  |  |  |  |  |  |  |  |  |  |  | 2 | > 256 |  |

Source: patent publication US5254535A, “Composition and treatment with biologically active peptides and antibiotic” (priority 1989, dated 1993)
